Measurements from patent US8968883B2, “Chrysene derivative materials” (E I du Pont de Nemours and Company, priority 2009, dated 2015).
Converted amounts (≈) assume the structure as drawn.

Experiment: Solubility in processing solvents (Table 1, Compound Properties)
Assay type: physicochemical
Settings: for Solubility anisole: solvent anisole; for Solubility toluene: solvent toluene
Procedure: It is also noted that solubility of the chrysene derivative materials in processing solvents can be adjusted to satisfy solution processing requirements. In some embodiments the solubility of chrysene derivatives in toluene and anisole is higher than 20 mg per ml of solvent. High solubility allows for better solution processing of electroactive devices.

Row | Structure (SMILES) | Solubility anisole | Solubility toluene | solubility properties (compared with compound C1 of Table 1)
1 | c1ccc(-c2ccc(N(c3ccc(-c4cccc(-c5ccccc5)c4)cc3)c3ccc4ccc5c6ccccc6ccc5c4c3)cc2)cc1 [Compound C1] | 23.9 mg/mL (≈ 38.3 mM) | 24.6 mg/mL (≈ 39.4 mM) | –
2 | [2H]c1c([2H])c([2H])c(-c2c([2H])c([2H])c(N(c3c([2H])c([2H])c(-c4c([2H])c([2H])c([2H])c(-c5c([2H])c([2H])c([2H])c([2H])c5[2H])c4[2H])c([2H])c3[2H])c3c([2H])c([2H])c4c([2H])c([2H])c5c6c([2H])c([2H])c([2H])c([2H])c6c([2H])c([2H])c5c4c3[2H])c([2H])c2[2H])c([2H])c1[2H] [Compound C2, Perdeutero-N-([1,1′-biphenyl]-4-yl)-N-([1,1′:3′,1″-terphenyl]-4-yl)chrysen-3-amine] | – | – | very similar to those of compound C1
3 | CC(C)(C)c1ccc(N(c2ccc(-c3ccccc3)cc2)c2ccc3ccc4c5ccccc5ccc4c3c2)cc1 [Compound C3, N-(biphenyl-4-yl)-N-(4-tert-butylphenyl)chrysene-3-amine] | 22.4 mg/mL (≈ 42.4 mM) | 22.2 mg/mL (≈ 42.1 mM) | –
4 | Cc1ccc(N(c2ccc(-c3ccc(-c4ccccc4)cc3)cc2)c2ccc3ccc4c5ccccc5ccc4c3c2)c(C)c1 [Compound C4] | 3.6 mg/mL (≈ 6.25 mM) | 1.0 mg/mL (≈ 1.74 mM) | –
5 | c1ccc(-c2ccc(N(c3ccc(-c4cccc5ccccc45)cc3)c3ccc4ccc5c6ccccc6ccc5c4c3)cc2)cc1 [Compound C5] | 23.7 mg/mL (≈ 39.6 mM) | 24.4 mg/mL (≈ 40.8 mM) | –
